Key:
Format in all cases: in vivo
[1] = system: tobacco whitefly (Bemisia tabaci); assay: whole plant or invertebrate
Description: (§1) A bioefficacy assay utilizing terpendole C was conducted on the lepidopterans: diamondback moth (Plutella xylostella) and common cutworm (Spodoptera litura): the whitefly, tobacco whitefly (Bemisia tabaci) the thrips, western flower thrips (Frankliniella occidentalis); the planthopper, brown rice planthopper (Nilaparvata lugens); the aphids, cotton aphid (Aphis gossypii), foxglove aphid (Aulacorthum solani), cabbage aphid (Brevicoryne brassicae), birdcherry-oat aphid (Rhopalosiphum padi), green peach aphid (Myzus persicae); and the mite, two-spotted spider mite (Tetranychus urticae). Specifically, terpendole C was diluted with acetone and 5% Tween® 20 and finally diluted with water to prepare spray solutions. Terpendole C was then applied to plants as a foliar spray at 500, 200, 50, 12.5, 3.1, 1, 0.8 and/or 0.2 ppm and/or as a soil treatment at 2,500, 1,000, 250, 63, 16, 4 and/or 1 ppm. Pests were then placed on the plant or in the soil. Further, mortality and appetite suppression were recorded at 6, 7 and/or 13 days after treatment (“DAT”) and are reported in Tables 2 and 3, below, respectively.

[2] = system: cotton aphid (Aphis gossypii); assay: whole plant or invertebrate
Description: as §1

[3] = system: brown rice planthopper (Nilaparvata lugens); assay: whole plant or invertebrate; conditions: 3rd-4th instar, 6 DAT
Description: as §1

[4] = system: birdcherry-oat aphid (Rhopalosiphum padi); assay: whole plant or invertebrate
Description: as §1

[5] = system: common cutworm (Spodoptera litura); assay: whole plant or invertebrate
Description: as §1

[6] = system: green peach aphid (Myzus persicae); assay: whole plant or invertebrate
Description: as §1

[7] = system: cabbage aphid (Brevicoryne brassicae); assay: whole plant or invertebrate
Description: as §1

[8] = system: green peach aphids (Myzus persicae); assay: LC50 biological efficacy assay on green peach aphids, aerosolized dilutions on infested radish leaves
Description: Biological efficacy assays utilizing terpendoles were conducted on green peach aphids (Myzus persicae). Specifically, terpendole A, terpendole C, terpendole J, terpendole K, terpendole N, terpendole O and terpendole P were each separately applied in serial dilutions to determine the concentration at which 50% control of green peach aphids occurred over a period of 24-48 hours (“LC50”). Radish leaves infested with green peach aphids were treated, top and bottom, with a total of 500 μl of an aerosolized terpendole dilution. Treated, aphid infested leaves were held in greenhouse conditions and evaluated for efficacy at 24 and 48 h.

CC(C)=C[C@H]1O[C@H]2[C@H]3O[C@@]34[C@H](CC[C@@]3(C)[C@@]4(O)CC[C@H]4Cc5c([nH]c6ccccc56)[C@@]43C)O[C@@H]2C(C)(C)O1 [Terpendole C, terpendole C]
3-4: Mortality score ([2]; 12.5 ppm, Cucumber, All stages, 6 DAT)
20 ppm: LC50 ([8]; concentration for 50% control over 24-48 hours, infested radish leaves, 500 μl aerosolized dilution)
75%: mortality at 0.8 ppm ([2]; Aphis gossypii, 144 h, 0.8 ppm, Cucumber, All stages, 6 DAT, read-out: Mortality score (converted)) | mortality at 50 ppm ([4]; Rhopalosiphum padi, 144 h, 50 ppm, Wheat, All stages, 6 DAT, read-out: Mortality score (converted)) | mortality at 12.5 ppm ([6]; Myzus persicae, 144 h, 12.5 ppm, Cabbage, All stages, 6 DAT, read-out: Mortality score (converted)) | mortality at 0.8 ppm ([7]; Brevicoryne brassicae, 144 h, 0.8 ppm, Cabbage, All stages, 6 DAT, read-out: Mortality score (converted)) | mortality at 3.1 ppm ([7]; Brevicoryne brassicae, 144 h, 3.1 ppm, Cabbage, All stages, 6 DAT, read-out: Mortality score (converted))
100%: mortality at 200 ppm ([2]; Aphis gossypii, 144 h, 200 ppm, Cucumber, All stages, 6 DAT, read-out: Mortality score (converted)) | mortality at 500 ppm ([2]; Aphis gossypii, 144 h, 500 ppm, Cucumber, All stages, 6 DAT, read-out: Mortality score (converted)) | mortality at 200 ppm ([6]; Myzus persicae, 144 h, 200 ppm, Cabbage, All stages, 6 DAT, read-out: Mortality score (converted)) | mortality at 12.5 ppm ([7]; Brevicoryne brassicae, 144 h, 12.5 ppm, Cabbage, All stages, 6 DAT, read-out: Mortality score (converted)) | mortality at 50 ppm ([7]; Brevicoryne brassicae, 144 h, 50 ppm, Cabbage, All stages, 6 DAT, read-out: Mortality score (converted)) | mortality at 200 ppm ([7]; Brevicoryne brassicae, 144 h, 200 ppm, Cabbage, All stages, 6 DAT, read-out: Mortality score (converted))
50%: mortality at 3.1 ppm ([1]; Bemisia tabaci, 168 h, 3.1 ppm, Cabbage, 1st instar, 7 DAT, read-out: Mortality score (converted)) | mortality at 12.5 ppm ([4]; Rhopalosiphum padi, 144 h, 12.5 ppm, Wheat, All stages, 6 DAT, read-out: Mortality score (converted)) | mortality at 3.1 ppm ([6]; Myzus persicae, 144 h, 3.1 ppm, Cabbage, All stages, 6 DAT, read-out: Mortality score (converted))
0-1: Mortality score ([3]; 12.5 ppm)
effectively controlled: control of cotton aphids (in words) ([2]; summary of Table 2) | control of birdcherry-oat aphids (in words) ([4]; summary of Table 2) | control of common cutworm (in words) ([5]; either by killing the larvae or suppressing the appetite of the larvae) | control of green peach aphids (in words) ([6]; summary of Table 2) | control of cabbage aphids (in words) ([7]; summary of Table 2) | control of green peach aphids (in words) ([8]; summary of Table 1)
significantly controlled: control of the whitefly (in words) ([1]; summary of results)
4 (4 = 70-100% suppression): Appetite suppression score ([5]; 12.5 ppm, Cabbage, 4th instar, 6 DAT) | Appetite suppression score ([5]; 50 ppm, Cabbage, 4th instar, 6 DAT) | Appetite suppression score ([5]; 200 ppm, Cabbage, 4th instar, 6 DAT) | Appetite suppression score ([5]; 500 ppm, Cabbage, 4th instar, 6 DAT)
< 29%: mortality at 50 ppm ([1]; Bemisia tabaci, 168 h, 50 ppm, Cabbage, 1st instar, 7 DAT, read-out: Mortality score) | mortality at 200 ppm ([1]; Bemisia tabaci, 168 h, 200 ppm, Cabbage, 1st instar, 7 DAT, read-out: Mortality score) | mortality at 500 ppm ([1]; Bemisia tabaci, 168 h, 500 ppm, Cabbage, 1st instar, 7 DAT, read-out: Mortality score) | mortality at 0.2 ppm ([2]; Aphis gossypii, 144 h, 0.2 ppm, Cucumber, All stages, 6 DAT, read-out: Mortality score) | mortality at 0.2 ppm ([3]; Nilaparvata lugens, 144 h, 0.2 ppm, read-out: Mortality score) | mortality at 0.8 ppm ([3]; Nilaparvata lugens, 144 h, 0.8 ppm, read-out: Mortality score) | mortality at 3.1 ppm ([3]; Nilaparvata lugens, 144 h, 3.1 ppm, read-out: Mortality score) | mortality at 50 ppm ([3]; Nilaparvata lugens, 144 h, 50 ppm, read-out: Mortality score) | mortality at 200 ppm ([3]; Nilaparvata lugens, 144 h, 200 ppm, read-out: Mortality score) | mortality at 500 ppm ([3]; Nilaparvata lugens, 144 h, 500 ppm, read-out: Mortality score) | mortality at 0.8 ppm ([4]; Rhopalosiphum padi, 144 h, 0.8 ppm, Wheat, All stages, 6 DAT, read-out: Mortality score) | mortality at 3.1 ppm ([4]; Rhopalosiphum padi, 144 h, 3.1 ppm, Wheat, All stages, 6 DAT, read-out: Mortality score) | mortality at 12.5 ppm ([5]; Spodoptera litura, 144 h, 12.5 ppm, Cabbage, 4th instar, 6 DAT, read-out: Mortality score) | mortality at 50 ppm ([5]; Spodoptera litura, 144 h, 50 ppm, Cabbage, 4th instar, 6 DAT, read-out: Mortality score) | mortality at 200 ppm ([5]; Spodoptera litura, 144 h, 200 ppm, Cabbage, 4th instar, 6 DAT, read-out: Mortality score) | mortality at 500 ppm ([5]; Spodoptera litura, 144 h, 500 ppm, Cabbage, 4th instar, 6 DAT, read-out: Mortality score) | mortality at 0.8 ppm ([6]; Myzus persicae, 144 h, 0.8 ppm, Cabbage, All stages, 6 DAT, read-out: Mortality score)
90%: mortality at 3.1 ppm ([2]; Aphis gossypii, 144 h, 3.1 ppm, Cucumber, All stages, 6 DAT, read-out: Mortality score (converted)) | mortality at 50 ppm ([2]; Aphis gossypii, 144 h, 50 ppm, Cucumber, All stages, 6 DAT, read-out: Mortality score (converted)) | mortality at 200 ppm ([4]; Rhopalosiphum padi, 144 h, 200 ppm, Wheat, All stages, 6 DAT, read-out: Mortality score (converted)) | mortality at 50 ppm ([6]; Myzus persicae, 144 h, 50 ppm, Cabbage, All stages, 6 DAT, read-out: Mortality score (converted))

Source: patent US10729135B2, “Methods of controlling pests using terpendoles” (priority 2017, dated 2020)
